# Experimental data: ChEMBL document CHEMBL1201861, “Genomics of Drug Sensitity in Cancer screening data, Wellcome Trust Sanger Institute”
# Assays:
# Test in all cases: cells
# CaR-1 = type: functional, cell-based, Homo sapiens; conditions: Homo sapiens, CaR-1;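 note: growth inhibition of human CaR-1 cancer cells, read out with a cell viability assay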
# Description: SANGER: Inhibition of human CaR-1 cell growth in a cell viability assay.
# D-502MG = type: functional, cell-based, Homo sapiens; conditions: Homo sapiens, D-502MG
# Description: SANGER: Inhibition of human D-502MG cell growth in a cell viability assay.
# DOK = type: functional, cell-based, Homo sapiens; conditions: Homo sapiens, DOK;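 note: cell viability assay read-out, values reflect inhibition of cell growth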
# Description: SANGER: Inhibition of human DOK cell growth in a cell viability assay.
# ESS-1 = type: functional, cell-based, Homo sapiens; conditions: Homo sapiens, ESS-1;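 note: growth inhibition of human ESS-1 cells, read out by a cell viability assay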
# Description: SANGER: Inhibition of human ESS-1 cell growth in a cell viability assay.
# EW-18 = type: functional, cell-based; conditions: Homo sapiens;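 note: growth inhibition of EW-18 cells, read out by a cell viability assay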
# Description: SANGER: Inhibition of human EW-18 cell growth in a cell viability assay.
# EW-3 = type: functional, cell-based; conditions: Homo sapiens;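 note: cell viability assay read-out, IC50 reflects inhibition of growth of the EW-3 cells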
# Description: SANGER: Inhibition of human EW-3 cell growth in a cell viability assay.
# HCC1954 = type: functional, cell-based, Homo sapiens; conditions: Homo sapiens, HCC1954;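 note: growth inhibition of human HCC1954 cells, read out with a cell viability assay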
# Description: SANGER: Inhibition of human HCC1954 cell growth in a cell viability assay.
# HCE-4 = type: functional, cell-based, Homo sapiens; conditions: Homo sapiens, HCE-4;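 note: cell viability assay measuring inhibition of growth in the human HCE-4 cell line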
# Description: SANGER: Inhibition of human HCE-4 cell growth in a cell viability assay.
# HMV-2 cell line = type: functional, cell-based, Homo sapiens; conditions: Homo sapiens, HMV-2;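 note: growth inhibition of HMV-II cells, read out with a cell viability assay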
# Description: SANGER: Inhibition of human HMV-II cell growth in a cell viability assay.
# JEG-3 = type: functional, cell-based, Homo sapiens; conditions: Homo sapiens, JEG-3;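 note: growth inhibition of human JEG-3 cells, read out with a cell viability assay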
# Description: SANGER: Inhibition of human JEG-3 cell growth in a cell viability assay.
# KARPAS-45 = type: functional, cell-based; conditions: Homo sapiens;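 note: inhibition of cell line growth, read out through a viability assay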
# Description: SANGER: Inhibition of human KARPAS-45 cell growth in a cell viability assay.
# KE-37 = type: functional, cell-based; conditions: Homo sapiens;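 note: growth inhibition of KE-37 cells, read out with a cell viability assay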
# Description: SANGER: Inhibition of human KE-37 cell growth in a cell viability assay.
# KLE = type: functional, cell-based, Homo sapiens; conditions: Homo sapiens, KLE;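 note: growth inhibition of human KLE cells, read out with a cell viability assay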
# Description: SANGER: Inhibition of human KLE cell growth in a cell viability assay.
# KS-1 = type: functional, cell-based, Homo sapiens; conditions: Homo sapiens, KS-1;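 note: growth inhibition of KS-1 cells, read out with a cell viability assay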
# Description: SANGER: Inhibition of human KS-1 cell growth in a cell viability assay.
# KU812 cell line = type: functional, cell-based; conditions: Homo sapiens;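 note: growth inhibition of KU812 cells, read out with a cell viability assay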
# Description: SANGER: Inhibition of human KU812 cell growth in a cell viability assay.
# KYSE-180 = type: functional, cell-based, Homo sapiens; conditions: Homo sapiens, KYSE-180;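 note: growth inhibition of KYSE-180 cells, read out with a cell viability assay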
# Description: SANGER: Inhibition of human KYSE-180 cell growth in a cell viability assay.
# LoVo = type: functional, cell-based; conditions: Homo sapiens;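 note: growth inhibition of human LoVo cells, read out with a cell viability assay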
# Description: SANGER: Inhibition of human LoVo cell growth in a cell viability assay.
# M059J = type: functional, cell-based, Homo sapiens; conditions: Homo sapiens, M059J;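 note: growth inhibition of M059J cells, read out with a cell viability assay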
# Description: SANGER: Inhibition of human M059J cell growth in a cell viability assay.
# M14 = type: functional, cell-based, Homo sapiens; conditions: Homo sapiens, M14;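 note: growth inhibition of M14 cells, read out with a cell viability assay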
# Description: SANGER: Inhibition of human M14 cell growth in a cell viability assay.
# MOLT-16 = type: functional, cell-based; conditions: Homo sapiens;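 note: growth inhibition of human MOLT-16 cells, read out with a cell viability assay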
# Description: SANGER: Inhibition of human MOLT-16 cell growth in a cell viability assay.
# MeWo = type: functional, cell-based, Homo sapiens; conditions: Homo sapiens, MeWo;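 note: growth inhibition of MeWo cells, determined by a cell viability readout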
# Description: SANGER: Inhibition of human Mewo cell growth in a cell viability assay.
# NCI-H1355 = type: functional, cell-based, Homo sapiens; conditions: Homo sapiens, NCI-H1355;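 note: growth inhibition of human NCI-H1355 cells, read out by a cell viability assay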
# Description: SANGER: Inhibition of human NCI-H1355 cell growth in a cell viability assay.
# NCI-H1755 = type: functional, cell-based, Homo sapiens; conditions: Homo sapiens, NCI-H1755;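 note: cell viability readout used to measure growth inhibition of NCI-H1755 cells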
# Description: SANGER: Inhibition of human NCI-H1755 cell growth in a cell viability assay.
# NCI-H292 = type: functional, cell-based, Homo sapiens; conditions: Homo sapiens, NCI-H292;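 note: growth inhibition of NCI-H292 cells, read out with a cell viability assay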
# Description: SANGER: Inhibition of human NCI-H292 cell growth in a cell viability assay.
# NCI-H69 = type: functional, cell-based; conditions: Homo sapiens;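 note: growth inhibition of the cell line, read out with a cell viability assay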
# Description: SANGER: Inhibition of human NCI-H69 cell growth in a cell viability assay.
# NCI-H82 = type: functional, cell-based; conditions: Homo sapiens;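 note: growth inhibition of NCI-H82 cells, measured with a cell viability readout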
# Description: SANGER: Inhibition of human NCI-H82 cell growth in a cell viability assay.
# NMC-G1 = type: functional, cell-based, Homo sapiens; conditions: Homo sapiens, NMC-G1;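 note: growth inhibition of the NMC-G1 cell line, measured with a cell viability read-out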
# Description: SANGER: Inhibition of human NMC-G1 cell growth in a cell viability assay.
# OCUB-M = type: functional, cell-based, Homo sapiens; conditions: Homo sapiens, OCUB-M;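 note: growth inhibition of the cancer cell line, read out through a cell viability assay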
# Description: SANGER: Inhibition of human OCUB-M cell growth in a cell viability assay.
# OVCAR-4 = type: functional, cell-based, Homo sapiens; conditions: Homo sapiens, OVCAR-4;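 note: growth inhibition of human OVCAR-4 cells, measured with a cell viability assay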
# Description: SANGER: Inhibition of human OVCAR-4 cell growth in a cell viability assay.
# P30-OHK = type: functional, cell-based; conditions: Homo sapiens;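 note: growth inhibition of the P30-OHK cell line, read out with a cell viability assay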
# Description: SANGER: Inhibition of human P30-OHK cell growth in a cell viability assay.
# PC-3 = type: functional, cell-based, Homo sapiens; conditions: Homo sapiens, PC-3;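 note: cell viability assay measuring growth inhibition of PC-3 cells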
# Description: SANGER: Inhibition of human PC-3 cell growth in a cell viability assay.
# RKO = type: functional, cell-based, Homo sapiens; conditions: Homo sapiens, RKO;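 note: growth inhibition of human RKO cells, read out with a cell viability assay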
# Description: SANGER: Inhibition of human RKO cell growth in a cell viability assay.
# RPMI-8866 = type: functional, cell-based; conditions: Homo sapiens
# Description: SANGER: Inhibition of human RPMI-8866 cell growth in a cell viability assay.
# S-117 = type: functional, cell-based, Homo sapiens; conditions: Homo sapiens, S-117
# Description: SANGER: Inhibition of human S-117 cell growth in a cell viability assay.
# SCC-9 = type: functional, cell-based, Homo sapiens; conditions: Homo sapiens, SCC-9;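 note: Read-out is a cell viability assay, with values giving inhibition of cell growth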
# Description: SANGER: Inhibition of human SCC-9 cell growth in a cell viability assay.
# SF-126 = type: functional, cell-based, Homo sapiens; conditions: Homo sapiens, SF-126;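 note: growth inhibition of human SF126 cells, read out with a cell viability assay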
# Description: SANGER: Inhibition of human SF126 cell growth in a cell viability assay.
# SK-LU-1 = type: functional, cell-based, Homo sapiens; conditions: Homo sapiens, SK-LU-1;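 note: cell viability assay measuring growth inhibition of human SK-LU-1 cells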
# Description: SANGER: Inhibition of human SK-LU-1 cell growth in a cell viability assay.
# SW-620 = type: functional, cell-based, Homo sapiens; conditions: Homo sapiens, SW-620;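 note: growth inhibition of human SW-620 cells, measured by a cell viability assay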
# Description: SANGER: Inhibition of human SW620 cell growth in a cell viability assay.
# SW872 = type: functional, cell-based, Homo sapiens; conditions: Homo sapiens, SW872;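 note: growth inhibition of SW872 cells, read out by a viability assay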
# Description: SANGER: Inhibition of human SW872 cell growth in a cell viability assay.
# SiHa = type: functional, cell-based, Homo sapiens; conditions: Homo sapiens, SiHa;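 note: Viability-based readout of growth inhibition in SiHa cells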
# Description: SANGER: Inhibition of human SiHa cell growth in a cell viability assay.
# 786-0 = type: functional, cell-based, Homo sapiens; conditions: Homo sapiens
# Description: SANGER: Inhibition of human 786-0 cell growth in a cell viability assay.
# A3-KAW = type: functional, cell-based; conditions: Homo sapiens;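 note: growth inhibition of human A3-KAW cells, read out with a cell viability assay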
# Description: SANGER: Inhibition of human A3-KAW cell growth in a cell viability assay.
# A388 = type: functional, cell-based, Homo sapiens; conditions: Homo sapiens, A388;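 note: growth inhibition of human A388 cells, read out with a cell viability assay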
# Description: SANGER: Inhibition of human A388 cell growth in a cell viability assay.
# AN3-CA = type: functional, cell-based; conditions: Homo sapiens;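 note: growth inhibition of human AN3-CA cells measured by a cell viability assay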
# Description: SANGER: Inhibition of human AN3-CA cell growth in a cell viability assay.
# AU565 = type: functional, cell-based, Homo sapiens; conditions: Homo sapiens, AU565;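 note: cell viability assay measuring growth inhibition of human AU565 cells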
# Description: SANGER: Inhibition of human AU565 cell growth in a cell viability assay.
# BFTC-905 = type: functional, cell-based, Homo sapiens; conditions: Homo sapiens, BFTC-905
# Description: SANGER: Inhibition of human BFTC-905 cell growth in a cell viability assay.
# C2BBe1 = type: functional, cell-based, Homo sapiens; conditions: Homo sapiens, C2BBe1;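 note: growth inhibition of C2BBe1 cells, read out through a viability assay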
# Description: SANGER: Inhibition of human C2BBe1 cell growth in a cell viability assay.
# C8166 = type: functional, cell-based; conditions: Homo sapiens;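 note: growth inhibition of human C8166 cells measured by a cell viability assay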
# Description: SANGER: Inhibition of human C8166 cell growth in a cell viability assay.
# CAL-51 = type: functional, cell-based, Homo sapiens; conditions: Homo sapiens, CAL-51;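 note: human CAL-51 cell line, growth inhibition read out via a cell viability assay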
# Description: SANGER: Inhibition of human CAL-51 cell growth in a cell viability assay.
# U2OS = type: functional, cell-based, Homo sapiens, U-2-OS; conditions: Homo sapiens, U2OS;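 note: growth inhibition of human U-2-OS cells, determined with a cell viability assay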
# Description: SANGER: Inhibition of human U-2-OS cell growth in a cell viability assay.
# VM-CUB-1 = type: functional, cell-based; conditions: Homo sapiens;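 note: cell viability assay measuring growth inhibition of the human VM-CUB-1 cell line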
# Description: SANGER: Inhibition of human VM-CUB-1 cell growth in a cell viability assay.
# CAPAN-1 = type: functional, cell-based, Homo sapiens; conditions: Homo sapiens, CAPAN-1;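 note: growth suppression of CAPAN-1 cells, read out by a cell viability assay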
# Description: SANGER: Inhibition of human CAPAN-1 cell growth in a cell viability assay.
# COLO-668 = type: functional, cell-based, Homo sapiens; conditions: Homo sapiens, COLO-668
# Description: SANGER: Inhibition of human COLO-668 cell growth in a cell viability assay.
# TGW = type: functional, cell-based; conditions: Homo sapiens;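 note: growth inhibition of human TGW cells, read out with a cell viability assay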
# Description: SANGER: Inhibition of human TGW cell growth in a cell viability assay.
smiles,measurement,setting,value
CC(=O)O[C@@]12CO[C@@H]1C[C@H](O)[C@@]1(C)C(=O)[C@H](O)C3=C(C)[C@@H](OC(=O)[C@H](O)[C@@H](NC(=O)OC(C)(C)C)c4ccccc4)C[C@@](O)([C@@H](OC(=O)c4ccccc4)[C@H]21)C3(C)C [DOCETAXEL],IC50,CaR-1,0.00327 µM
same,IC50,D-502MG,0.0041 µM
same,IC50,DOK,0.00294 µM
same,IC50,ESS-1,0.000179 µM
same,IC50,EW-18,> 0.01 µM
same,IC50,EW-3,0.000745 µM
same,IC50,HCC1954,> 0.01 µM
same,IC50,HCE-4,0.00247 µM
same,IC50,HMV-2 cell line,> 0.01 µM
same,IC50,JEG-3,0.00282 µM
same,IC50,KARPAS-45,0.00652 µM
same,IC50,KE-37,> 0.01 µM
same,IC50,KLE,> 0.01 µM
same,IC50,KS-1,0.00144 µM
same,IC50,KU812 cell line,> 0.01 µM
same,IC50,KYSE-180,0.00135 µM
same,IC50,LoVo,> 0.01 µM
same,IC50,M059J,0.00198 µM
same,IC50,M14,0.00191 µM
same,IC50,MOLT-16,0.00827 µM
same,IC50,MeWo,0.00505 µM
same,IC50,NCI-H1355,0.00679 µM
same,IC50,NCI-H1755,0.00624 µM
same,IC50,NCI-H292,0.000159 µM
same,IC50,NCI-H69,> 0.01 µM
same,IC50,NCI-H82,0.00822 µM
same,IC50,NMC-G1,0.000517 µM
same,IC50,OCUB-M,0.00438 µM
same,IC50,OVCAR-4,0.00586 µM
same,IC50,P30-OHK,> 0.01 µM
same,IC50,PC-3,> 0.01 µM
same,IC50,RKO,0.000989 µM
same,IC50,RPMI-8866,0.00281 µM
same,IC50,S-117,0.00486 µM
same,IC50,SCC-9,0.00132 µM
same,IC50,SF-126,0.00329 µM
same,IC50,SK-LU-1,> 0.01 µM
same,IC50,SW-620,0.00397 µM
same,IC50,SW872,> 0.01 µM
same,IC50,SiHa,0.0043 µM
same,IC50,786-0,0.00786 µM
same,IC50,A3-KAW,> 0.01 µM
same,IC50,A388,0.00265 µM
same,IC50,AN3-CA,0.00507 µM
same,IC50,AU565,0.00181 µM
same,IC50,BFTC-905,0.000268 µM
same,IC50,C2BBe1,0.00182 µM
same,IC50,C8166,> 0.01 µM
same,IC50,CAL-51,0.00271 µM
same,IC50,U2OS,0.00175 µM
same,IC50,VM-CUB-1,0.00105 µM
same,IC50,CAPAN-1,> 0.01 µM
same,IC50,COLO-668,> 0.01 µM
O=c1cc(-c2cccc3c2Sc2ccccc2S3)oc(N2CCOCC2)c1 [KU-55933],IC50,CaR-1,> 10 µM
same,IC50,D-502MG,> 10 µM
same,IC50,DOK,> 10 µM
same,IC50,ESS-1,> 10 µM
same,IC50,HCC1954,> 10 µM
same,IC50,HCE-4,> 10 µM
same,IC50,HMV-2 cell line,> 10 µM
same,IC50,JEG-3,> 10 µM
same,IC50,KE-37,> 10 µM
same,IC50,KLE,> 10 µM
same,IC50,KS-1,> 10 µM
same,IC50,KYSE-180,> 10 µM
same,IC50,LoVo,6.93 µM
same,IC50,M059J,> 10 µM
same,IC50,M14,> 10 µM
same,IC50,MOLT-16,> 10 µM
same,IC50,MeWo,> 10 µM
same,IC50,NCI-H1355,> 10 µM
same,IC50,NCI-H1755,> 10 µM
same,IC50,NCI-H292,> 10 µM
same,IC50,NCI-H82,> 10 µM
same,IC50,NMC-G1,> 10 µM
same,IC50,OCUB-M,> 10 µM
same,IC50,OVCAR-4,> 10 µM
same,IC50,P30-OHK,> 10 µM
same,IC50,PC-3,> 10 µM
same,IC50,RKO,> 10 µM
same,IC50,RPMI-8866,> 10 µM
same,IC50,S-117,> 10 µM
same,IC50,SCC-9,> 10 µM
same,IC50,SF-126,> 10 µM
same,IC50,SK-LU-1,> 10 µM
same,IC50,SW-620,> 10 µM
same,IC50,SW872,> 10 µM
same,IC50,SiHa,> 10 µM
same,IC50,786-0,> 10 µM
same,IC50,A3-KAW,> 10 µM
same,IC50,A388,> 10 µM
same,IC50,AN3-CA,> 10 µM
same,IC50,AU565,> 10 µM
same,IC50,BFTC-905,> 10 µM
same,IC50,C2BBe1,> 10 µM
same,IC50,C8166,> 10 µM
same,IC50,CAL-51,> 10 µM
same,IC50,TGW,> 10 µM
same,IC50,U2OS,> 10 µM
same,IC50,VM-CUB-1,> 10 µM
same,IC50,CAPAN-1,> 10 µM
same,IC50,COLO-668,> 10 µM
O=C(c1cc(Cc2n[nH]c(=O)c3ccccc23)ccc1F)N1CCN(C(=O)C2CC2)CC1 [OLAPARIB],IC50,CaR-1,> 5 µM
same,IC50,D-502MG,> 5 µM
same,IC50,DOK,> 5 µM
same,IC50,ESS-1,> 5 µM
same,IC50,EW-18,> 5 µM
same,IC50,EW-3,2.28 µM
same,IC50,HCC1954,> 5 µM
same,IC50,HCE-4,> 5 µM
same,IC50,HMV-2 cell line,> 5 µM
same,IC50,JEG-3,> 5 µM
same,IC50,KARPAS-45,> 5 µM
same,IC50,KE-37,> 5 µM
same,IC50,KLE,> 5 µM
same,IC50,KS-1,> 5 µM
same,IC50,KU812 cell line,> 5 µM
same,IC50,KYSE-180,> 5 µM
same,IC50,LoVo,> 5 µM
same,IC50,M059J,> 5 µM
same,IC50,M14,> 5 µM
same,IC50,MOLT-16,> 5 µM
same,IC50,MeWo,> 5 µM
same,IC50,NCI-H1355,> 5 µM
same,IC50,NCI-H1755,> 5 µM
same,IC50,NCI-H292,> 5 µM
same,IC50,NCI-H69,> 5 µM
same,IC50,NCI-H82,> 5 µM
same,IC50,NMC-G1,> 5 µM
same,IC50,OCUB-M,> 5 µM
same,IC50,OVCAR-4,> 5 µM
same,IC50,P30-OHK,> 5 µM
same,IC50,PC-3,> 5 µM
same,IC50,RKO,> 5 µM
same,IC50,RPMI-8866,> 5 µM
same,IC50,S-117,> 5 µM
same,IC50,SCC-9,> 5 µM
same,IC50,SF-126,> 5 µM
same,IC50,SK-LU-1,> 5 µM
same,IC50,SW-620,> 5 µM
same,IC50,SW872,> 5 µM
same,IC50,SiHa,> 5 µM
same,IC50,786-0,> 5 µM
same,IC50,A3-KAW,> 5 µM
same,IC50,A388,> 5 µM
same,IC50,AN3-CA,> 5 µM
same,IC50,AU565,> 5 µM
same,IC50,BFTC-905,> 5 µM
same,IC50,C2BBe1,> 5 µM
same,IC50,C8166,> 5 µM
same,IC50,CAL-51,> 5 µM
same,IC50,U2OS,> 5 µM
same,IC50,VM-CUB-1,> 5 µM
same,IC50,CAPAN-1,> 5 µM
same,IC50,COLO-668,> 5 µM
